Assay results: ChEMBL document CHEMBL3621173, “Evaluation of functional groups as acetyl-lysine mimetics for BET bromodomain inhibition” (Medchemcomm, 2014)
Activity calls are given as the source filed them. The rule behind the calls is not given here.

Key:
[1] = target: T1, Bromodomain-containing protein 3 (Homo sapiens, UniProt Q15059); assay: Inhibition of BRD3 (D1) (unknown origin) at 5 uM incubated for 30 mins using histone H4 peptide (1-21) K5/8/12/16Ac-biotin by alpha screen assay
Target sequence in this assay (Q15059 2-726 limits assumed): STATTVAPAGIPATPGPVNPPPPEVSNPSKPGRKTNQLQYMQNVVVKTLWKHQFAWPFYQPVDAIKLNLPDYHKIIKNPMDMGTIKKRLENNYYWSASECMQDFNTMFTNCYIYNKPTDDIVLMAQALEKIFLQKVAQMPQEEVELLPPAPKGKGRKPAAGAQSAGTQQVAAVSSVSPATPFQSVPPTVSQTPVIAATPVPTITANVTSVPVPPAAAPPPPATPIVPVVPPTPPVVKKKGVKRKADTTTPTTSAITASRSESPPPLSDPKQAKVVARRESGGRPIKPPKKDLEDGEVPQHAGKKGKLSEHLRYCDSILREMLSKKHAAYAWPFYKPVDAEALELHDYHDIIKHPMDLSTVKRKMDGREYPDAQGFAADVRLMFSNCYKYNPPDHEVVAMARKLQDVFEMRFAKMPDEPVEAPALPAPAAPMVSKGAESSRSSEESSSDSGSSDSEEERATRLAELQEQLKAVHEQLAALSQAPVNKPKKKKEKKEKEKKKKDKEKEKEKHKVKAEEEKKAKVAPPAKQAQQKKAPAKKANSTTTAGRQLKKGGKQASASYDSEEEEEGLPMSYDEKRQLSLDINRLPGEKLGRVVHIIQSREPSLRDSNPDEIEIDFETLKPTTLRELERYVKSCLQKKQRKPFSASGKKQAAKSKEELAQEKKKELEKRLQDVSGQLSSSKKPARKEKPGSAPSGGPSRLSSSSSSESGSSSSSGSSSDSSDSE

[2] = target: Bromodomain-containing protein 2 (Homo sapiens) (UniProt P25440); assay: Inhibition of BRD2 (D1) (unknown origin) at 5 uM incubated for 30 mins using histone H4 peptide (1-21) K5/8/12/16Ac-biotin by alpha screen assay
[3] = target: T2, Bromodomain-containing protein 4 (Homo sapiens, UniProt O60885); assay: Inhibition of BRD4 (D1) (unknown origin) at 5 uM incubated for 30 mins using histone H4 peptide (1-21) K5/8/12/16Ac-biotin by alpha screen assay
[4] = target: T2, Bromodomain-containing protein 4; assay: Inhibition of BRD4 (D1) (unknown origin) incubated for 30 mins using histone H4 peptide (1-21) K5/8/12/16Ac-biotin by alpha screen assay
[5] = target: T1, Bromodomain-containing protein 3; assay: Inhibition of BRD3 (D1) (unknown origin) incubated for 30 mins using histone H4 peptide (1-21) K5/8/12/16Ac-biotin by alpha screen assay
Target sequence in this assay (Q15059 whole entry): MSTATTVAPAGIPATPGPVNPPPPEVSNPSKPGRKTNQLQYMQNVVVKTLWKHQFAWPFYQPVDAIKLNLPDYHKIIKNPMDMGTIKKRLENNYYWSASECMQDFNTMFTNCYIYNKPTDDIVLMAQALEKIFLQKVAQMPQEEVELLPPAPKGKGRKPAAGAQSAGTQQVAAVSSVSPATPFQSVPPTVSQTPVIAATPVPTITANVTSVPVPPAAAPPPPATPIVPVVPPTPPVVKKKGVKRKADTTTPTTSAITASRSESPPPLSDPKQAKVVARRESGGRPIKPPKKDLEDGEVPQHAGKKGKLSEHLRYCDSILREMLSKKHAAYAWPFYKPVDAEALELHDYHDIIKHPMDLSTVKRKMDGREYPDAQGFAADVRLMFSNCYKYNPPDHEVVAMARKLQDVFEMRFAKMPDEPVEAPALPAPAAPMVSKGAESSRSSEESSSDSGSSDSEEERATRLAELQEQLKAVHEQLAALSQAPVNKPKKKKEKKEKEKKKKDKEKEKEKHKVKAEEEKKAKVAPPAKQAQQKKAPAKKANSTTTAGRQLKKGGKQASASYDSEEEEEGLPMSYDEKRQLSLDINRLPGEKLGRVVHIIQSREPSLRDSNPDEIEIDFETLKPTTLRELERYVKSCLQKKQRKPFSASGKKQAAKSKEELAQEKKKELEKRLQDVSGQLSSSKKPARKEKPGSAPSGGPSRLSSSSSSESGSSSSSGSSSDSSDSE

[6] = Intrinsic clearance in mouse liver microsomes; type: ADME; conditions: read-out: CLH
[7] = Degradation half-life in mouse liver microsomes; type: ADME
[8] = Intrinsic clearance in human liver microsomes; type: ADME; conditions: read-out: CLH
[9] = Intrinsic clearance in rat liver microsomes; type: ADME; conditions: read-out: CLH
[10] = Degradation half-life in rat liver microsomes; type: ADME
[11] = Degradation half-life in human liver microsomes; type: ADME

Chain of Bromodomain-containing protein 2 (Homo sapiens) (P25440 whole entry, looked up): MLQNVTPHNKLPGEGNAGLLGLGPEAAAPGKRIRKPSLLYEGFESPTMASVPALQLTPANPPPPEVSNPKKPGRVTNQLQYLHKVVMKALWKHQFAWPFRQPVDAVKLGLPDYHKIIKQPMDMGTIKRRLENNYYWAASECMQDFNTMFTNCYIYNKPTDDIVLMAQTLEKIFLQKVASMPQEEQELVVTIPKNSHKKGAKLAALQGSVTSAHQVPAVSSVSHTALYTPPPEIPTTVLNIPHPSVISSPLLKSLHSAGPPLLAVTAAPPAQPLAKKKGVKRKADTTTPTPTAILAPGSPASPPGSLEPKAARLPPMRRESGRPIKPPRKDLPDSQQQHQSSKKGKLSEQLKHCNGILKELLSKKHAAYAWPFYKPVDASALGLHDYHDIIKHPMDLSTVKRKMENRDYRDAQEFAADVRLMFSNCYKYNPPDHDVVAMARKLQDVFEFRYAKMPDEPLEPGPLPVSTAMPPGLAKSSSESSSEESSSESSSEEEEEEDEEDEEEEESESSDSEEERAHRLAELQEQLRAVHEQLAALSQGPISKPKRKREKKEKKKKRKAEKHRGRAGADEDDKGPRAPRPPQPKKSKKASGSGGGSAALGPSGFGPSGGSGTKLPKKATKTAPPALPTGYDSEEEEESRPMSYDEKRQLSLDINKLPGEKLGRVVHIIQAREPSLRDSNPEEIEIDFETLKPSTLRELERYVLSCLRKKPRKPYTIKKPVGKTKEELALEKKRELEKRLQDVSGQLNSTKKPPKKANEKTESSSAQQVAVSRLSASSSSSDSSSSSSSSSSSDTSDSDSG

Compound | inhibition [1] | inhibition [2] | inhibition [3] | other results
COc1ccc(-c2ccc(N)nc2C)cc1S(=O)(=O)NC1CCCC1 | Active | Active | Active | –
COc1ccc(-c2ccc(NC(C)=O)cc2)cc1S(=O)(=O)NC1CCCC1 | inactive | inactive | inactive | –
COc1ccc(-c2cc[n+]([O-])cc2)cc1S(=O)(=O)NC1CCCC1 | inactive | inactive | inactive | –
COc1ccc(-c2c(C)noc2C)cc1S(=O)(=O)NC1CCCC1 | Active | Active | Active | IC50 [4]: 1.2 µM; IC50 [5]: 0.2 µM
COc1ccc(-c2cn(C)nn2)cc1S(=O)(=O)NC1CCCC1 | inactive | inactive | inactive | –
CC(=O)Nc1ccc(C)c(S(=O)(=O)NC2CCCC2)c1 | inactive | inactive | inactive | –
Cc1sc2c(c1C)C(c1ccc(Cl)cc1)=N[C@@H](CC(=O)OC(C)(C)C)c1nnc(C)n1-2 | – | – | – | microsomal CLint [6]: 166 µL/min/mg; half-life [7]: 0.117 h; microsomal CLint [8]: 136 µL/min/mg; microsomal CLint [9]: 129 µL/min/mg
COc1ccc(-c2ccsc2C)cc1S(=O)(=O)NC1CCCC1 | inactive | inactive | inactive | –
Cc1ccc(-c2nnnn2C)cc1S(=O)(=O)NC1CCCC1 | inactive | inactive | inactive | –
COc1ccc(-c2cc(N)ccc2C)cc1S(=O)(=O)NC1CCCC1 | inactive | inactive | inactive | –
Cc1nc(-c2ccc(C)c(S(=O)(=O)NC3CCCC3)c2)no1 | inactive | inactive | inactive | –
Cc1ccc(-n2cnnc2C)cc1S(=O)(=O)NC1CCCC1 | inactive | inactive | inactive | IC50 [4]: ≥ 10 µM; IC50 [5]: ≥ 10 µM
COc1ccc(-c2c(C)n[nH]c2C)cc1S(=O)(=O)NC1CCCC1 | Active | Active | Active | IC50 [4]: 2.89 µM; IC50 [5]: 1.32 µM
COc1ccc(-c2cnc(N)nc2)cc1S(=O)(=O)NC1CCCC1 | inactive | inactive | inactive | –
COc1ccc(-c2ccc(N)[n+]([O-])c2C)cc1S(=O)(=O)NC1CCCC1 | Active | – | Active | –
COc1ccc(-c2cnn(C)n2)cc1S(=O)(=O)NC1CCCC1 | – | – | Active | IC50 [4]: 4 µM; IC50 [5]: 10 µM
Cc1ccc(-c2c(C)noc2C)cc1S(=O)(=O)NC1CCCC1 | Active | Active | Active | microsomal CLint [6]: 461 µL/min/mg; half-life [7]: 0.0667 h; microsomal CLint [8]: 246 µL/min/mg; microsomal CLint [9]: 711 µL/min/mg; half-life [10]: 0.0333 h; half-life [11]: 0.117 h

Compound | inhibition [1] | inhibition [2] | inhibition [3] | other results
COc1ccc(-c2cccc(NC(C)=O)c2)cc1S(=O)(=O)NC1CCCC1 | inactive | inactive | inactive | –
Cc1ccc(NS(C)(=O)=O)cc1S(=O)(=O)NC1CCCC1 | inactive | inactive | inactive | –
COc1ccc(-c2cn[nH]c2)cc1S(=O)(=O)NC1CCCC1 | inactive | inactive | inactive | –
Cc1ccc(-c2nnn(C)n2)cc1S(=O)(=O)NC1CCCC1 | inactive | inactive | inactive | –
Cc1ccc(-n2c(C)nnc2C)cc1S(=O)(=O)NC1CCCC1 | inactive | inactive | inactive | IC50 [4]: ≥ 10 µM; microsomal CLint [6]: 20 µL/min/mg; half-life [7]: 1.42 h; microsomal CLint [8]: 10 µL/min/mg; IC50 [5]: ≥ 10 µM; microsomal CLint [9]: 16 µL/min/mg; half-life [10]: 1.78 h; half-life [11]: 2.88 h
COc1ccc(-c2ccnn2C)cc1S(=O)(=O)NC1CCCC1 | Active | Active | Active | IC50 [4]: 10.1 µM; IC50 [5]: 1.71 µM
COc1ccc(-c2ccccc2NS(C)(=O)=O)cc1S(=O)(=O)NC1CCCC1 | inactive | inactive | inactive | –
COc1ccc(-c2c(C)nn(C)c2C)cc1S(=O)(=O)NC1CCCC1 | inactive | inactive | inactive | –
COc1ccc(-c2ccc(N)nc2)cc1S(=O)(=O)NC1CCCC1 | inactive | inactive | inactive | –
COc1ccc(-c2ccncc2)cc1S(=O)(=O)NC1CCCC1 | inactive | inactive | inactive | –
COc1cc2c(cc1-c1c(C)noc1C)ncc1[nH]c(=O)n([C@H](C)c3ccccn3)c12 | – | – | – | microsomal CLint [6]: < 7 µL/min/mg; half-life [7]: > 4.12 h; microsomal CLint [8]: 7 µL/min/mg; microsomal CLint [9]: 8 µL/min/mg; half-life [10]: 3.45 h; half-life [11]: 3.9 h
COc1ccc(-c2ccc(N)cc2C)cc1S(=O)(=O)NC1CCCC1 | inactive | inactive | inactive | –
CC(=O)NCc1ccc(C)c(S(=O)(=O)NC2CCCC2)c1 | inactive | inactive | inactive | –
COc1ccc(-c2ccsc2)cc1S(=O)(=O)NC1CCCC1 | inactive | inactive | inactive | –
COc1ccc(-c2cccnc2)cc1S(=O)(=O)NC1CCCC1 | inactive | inactive | inactive | –
COc1ccc(-c2cccc(N)c2C)cc1S(=O)(=O)NC1CCCC1 | inactive | inactive | inactive | –
